According to patent publication US20250115571A1, “OXOPIPERAZINE DERIVATIVES” (Inthera Bioscience AG, priority 2017, published 2025):

Key:
[1] = test system: CaSki; assay: 9-day colony survival assay (CFA); assay type: cell-based; conditions: Homo sapiens, Ca-Ski, 216 h, CaSki (cervix), read-out: GI50 (50% growth inhibition)
Text: Cell culture. CaSki cells (cervical cancer) were obtained from CLS GmbH, Eppelheim, Germany (cat #300145) and subcultured in ready-to-use RPMI1640 Media (CLS #820700) after addition of “Antibiotic Antimycotic Solution” (Sigma-Aldrich, St Louis, USA) at 1:100 dilution. The cells were expanded, and aliquots kept frozen in liquid nitrogen according to manufacturer's instructions; tested for mycoplasma contamination and genotyped (Microsynth AG, Balgach, Switzerland). Once thawed, aliquots were passaged every second or third day at a seed density of 20′000 cells/cm^2; and used for a maximum of twenty passages. For passaging, cell culture flasks were rinsed twice with Ca++/Mg++-free Phosphate-Buffered Saline (DPBS, CLS #860015) and incubated with Accutase (CLS #830100) for 15 min at 37° C. Cells were resuspended in a four-fold volume of ready-to-use RPMI, centrifuged at 300 g for ten minutes, the supernatant discarded and the cells resuspended in ready-to-use RPMI1640 by pipetting up and down five times with a serological pipette. Cell density was determined with a Via-1 Cassette (Chemometec, Allerod, Denmark) on a Nucleocounter NC 3000 (Chemometec). Where not stated, consumables and chemicals were purchased from well-known suppliers.
Preparation of the cells for CFA. Cell culture flasks were rinsed twice with DPBS and incubated with Accutase for 15 min at 37° C. Cells were resuspended in a four-fold volume of ready-to use RPMI, centrifuged at 300 g for ten minutes, the supernatant discarded and the cells resuspended in ready-to-use RPMI1640 by pipetting up and down ten times with a serological pipette. Cell density was determined with a Via-1 Cassette on a Nucleocounter NC 3000. The required amount of cells was first diluted 1:10 in ready-to-use RPMI; cells pipetted five times up-down with a serological pipette; and the 1:10 solution added to the final volume needed for the whole assay setup. Cells were mixed again by pipetting up and down twenty times with a serological pipette. The cell density used for the experiment was of 140 cells/ml.
Seeding. Cells were seeded row-wise in 12-well plates, while triplicates were treated column-wise (i.e. all the first rows were seeded first, then the second rows, and finally the third rows). One and a half ml cell suspension solution (a total of 210 cells) were added per well.
Treatment. Compound stock solutions were prepared at a concentration of 30 mM in 50% DMSO/50% water; and diluted in the same solution so that the volume added to the wells was of 2.5 μl and the final DMSO well concentration of 0.08%. Untreated cells (negative controls) were incubated in a) medium only; and b) 0.08% DMSO. […] The plates were swirled gently after addition of the compounds and the cells incubated for nine days at 37° C. Culture incubation solutions were replaced after five days.
Staining. Colonies were washed twice with ice-cold DPBS and fixed on ice with 1 ml ice-cold 10% methanol solution for 30 min. The methanol solution was removed and colonies incubated with 0.1% Crystal Violet/DBPS for 20 min at room temperature. The wells were rinsed consecutively with 1.5, 1, and 0.5 ml water at room temperature and let dry.
Destaining and data evaluation. […] Absorbance was measured at 600 nm with a SpectraMax M2e reader (Molecular Devices, Sunnyvale, CA, USA). Percentage of colony formation was calculated from the average of the well triplicates compared to the untreated DMSO controls after subtraction of blank values. […]

[2] = test system: MKN45 human gastric adenocarcinoma cells; assay: Cell-derived xenograft mouse model for gastric cancer (MKN45 CDX); assay type: in vivo; conditions: 6 mg/kg, QD, p.o.
Experimental: Female BALB/c nude mice (8-9 weeks of age) were injected with MKN45 human gastric adenocarcinoma cells. The cells were inoculated subcutaneously into the left flank of 48 mice. When tumors reached a mean volume of approximately 103 mm^3, mice were randomly assigned to eight treatment groups of each six mice (TABLE 16). Body weights were measured three times weekly prior to the initiation of dosing and daily thereafter. Tumor burden was assessed by caliper measurement twice weekly. Dosing breaks were applied when tolerability issues arose (body weight loss>10%). The study was terminated four weeks post first dosing. The experiment was performed in the Crown Bioscience Ltd. (Beijing) testing facility (Ground Floor, Light Muller Building, Changping Sector of Zhongguancun Scientific Park, No. 21 Huoju Road, Changping District, Beijing, CHN).

[3] = test system: A549; assay: 9-day colony survival assay (CFA); assay type: cell-based; conditions: Homo sapiens, 216 h, A549 (lung), read-out: GI50 (50% growth inhibition)
[4] = test system: hormone-refractory DU-145 human prostate cancer cells; assay: Cell-derived xenograft mouse model for prostate cancer (DU-145 CDX); assay type: in vivo; conditions: 3 mg/kg, p.o. QD × 4 weeks
Experimental: Male BALB/c nude mice (7-9 weeks of age) were injected with hormone-refractory DU-145 human prostate cancer cells. The cells were inoculated subcutaneously into the left flank of 48 mice. When tumors reached a mean volume of approximately 105 mm^3, mice were randomly assigned to eight treatment groups of each six mice (TABLE 12). Body weights were measured three times weekly prior to the initiation of dosing and daily thereafter. Tumor burden was assessed by caliper measurement three times weekly. Dosing breaks were applied when tolerability issues arose (body weight loss>10%). The study was terminated 4 weeks post first dosing. The experiment was performed in the Crown Bioscience Ltd. (Beijing) testing facility (Ground Floor, Light Muller Building, Changping Sector of Zhongguancun Scientific Park, No. 21 Huoju Road, Changping District, Beijing, CHIN).

[5] = test system: HCT116; assay: 9-day colony survival assay (CFA); assay type: cell-based; conditions: Homo sapiens, HCT-116, 216 h, HCT116 (colon), read-out: GI50 (50% growth inhibition)
[6] = test system: PC3; assay: 9-day colony survival assay (CFA); assay type: cell-based; conditions: Homo sapiens, PC-3, 216 h, PC3 (prostate), read-out: GI50 (50% growth inhibition)

## CC(C)C[C@@H]1NCCN([C@@H](CC(C)C)C(=O)N2CCC3(C[C@@H]2C)OCC(CN2CCC(C)CC2)CO3)C1=O (stereo partly drawn) [Compound 253, (3S)-1-[(2S)-4-methyl-1-oxo-1-[(3s,6s,8S)-8-methyl-3-[(4-methylpiperidin-1-yl)methyl]-1,5-dioxa-9-azaspiro[5.5]undec-an-9-yl]pentan-2-yl]-3-(2-methylpropyl)piper-azin-2-one (^≠), isomer Z]
[1]
  GI50: 4.5 nM
[2]; MKN45 CDX, female BALB/c nude mice, Mean ± SEM
  Tumor Size day 29: 506.5 ± 71.0 mm^3
[2]; day 29, tumor-to-control ratio (volume/volume)
  T/C: 42.6%
[3]
  GI50: 7 nM
[4]
  Tumor Size day 35 (Mean ± SEM): 480 ± 49 mm^3
[4]; day 35
  T/C (tumor-to-control ratio, volume/volume): 69.3%
[5]
  GI50: 2 nM
[6]
  GI50: 4 nM
